In patent US11028090B2 (Dong Wha Pharm. Co., Ltd., priority 2017, dated 2021):
Counter-ions that a name gives are not always drawn. Like-named read-outs stand apart in the source and are kept apart here.

Experiments:
[1] = test system: acute myelogenous leukemia cells (MV-4-11 cells); assay: Cytotoxicity to acute myelogenous leukemia cells (MV-4-11 cells), CCK-8; conditions: Homo sapiens, MV4-11, 72 h
[2] = biological target: BRD4 (BD1+BD2) bromodomain (Homo sapiens (Human), UniProt O60885); assay: BRD4 binding inhibition (AlphaScreen, GST-BRD4 vs tetraacetylated histone H4 peptide)
Summary of the method: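 AlphaScreen read after 30 min dark incubation at room temperature with glutathione acceptor/streptavidin donor beads (10 μg/ml each). The beads were added to compound plus 100 nM biotin-H4 (K5,8,12,16-acetyl) peptide and 100 nM GST-BRD4 BD1+BD2 in pH 7.4 HEPES/Tween/BSA/DTT buffer.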

[3] = GST-BRD4 (BD1+BD2) vs biotinylated acetyl-histone H4 peptide, AlphaScreen, read-out: BRD4 IC50
[4] = GST-BRD4 (BD1+BD2) / biotinylated acetyl-histone H4 (Lys5,8,12,16) peptide, read-out: IC50, BRD4 binding inhibition

SMILES	IC50 [2, 3] [µM]	IC50 [2, 4] [µM]	IC50 ([1]; read-out: IC50, cytotoxicity against acute myelogenous leukemia cells) [µM]	IC50 ([1]; read-out: MV-4-11 Cytotoxicity IC50) [µM]
COc1cc2nc(NCCCCNC(=O)CC(C)C)c3nnc(C)n3c2cc1NC(=O)NC(C)C [Example 561, N-{4-[8-(3-isopropyl-ureido)-7-methoxy-1-methyl-[1,2,4]triazolo[4,3-a]quinoxaline-4-ylamino]-butyl}-3-methyl-butyramide]			≤ 0.2	0.06
Cc1nnc2c(NCCCCNC(=O)CC(C)C)nc3cc(OCc4ccc(-c5nn[nH]n5)cc4)ccc3n12 [Example 348, 3-methyl-N-(4-{1-methyl-7-[4-(2H-tetrazol-5-yl)-benzyloxy]-[1,2,4]triazolo[4,3-a]quinoxaline-4-ylamino}-butyl)-butyramide]	0.1			
COc1cc2nc(NCCCCNC(=O)c3ccc(Cl)cc3)c3nnc(C)n3c2cc1OC [Example 100, 4-chloro-N-[4-(7,8-dimethoxy-1-methyl-[1,2,4]triazolo[4,3-a]quinoxaline-4-ylamino)-butyl]-benzamide]	0.069			
Cc1nnc2c(NCCCCC(=O)NC(C)C)nc3ccccc3n12 [Example 659, 5-(1-methyl-[1,2,4]triazolo[4,3-a]quinoxaline-4-ylamino)-pentanoic acid isopropylamide]	0.075			
Cc1nnc2c(NCCCCOC(=O)C(C)(C)C)nc3ccccc3n12 [Example 631, 2,2-dimethyl-propionic acid-4-(1-methyl-[1,2,4]triazolo[4,3-a]quinoxaline-4-ylamino)-butylester]	0.047	≤ 0.05		
Cc1nnc2c(NCCCCN)nc3cc(N4CCOCC4)ccc3n12 [Example 498, N^1-(1-methyl-7-morpholine-4-yl-[1,2,4]triazolo[4,3-a]quinoxaline-4-yl)-butane-1,4-diamine dihydrochloride]	0.098			
COc1ccc2c(c1)nc(NCCCCNC(=O)OC(C)C)c1nnc(C(C)C)n12 [Example 628, [4-(1-isopropyl-7-methoxy-[1,2,4]triazolo[4,3-a]quinoxaline-4-ylamino)-butyl]-carbamic acid isopropylester]	0.048	≤ 0.05		
Cc1nnc2c(NCCCCNC(=O)CC(C)C)nc3cc(Cl)c(Cl)cc3n12 [Example 30, N-[4-(7,8-dichloro-1-methyl-[1,2,4]triazolo[4,3-a]quinoxaline-4-ylamino)-butyl]-3-methyl-butyramide]		≤ 0.01		
COCCOc1ccc2c(c1)nc(NCCCCNC(=O)[C@@H](NS(C)(=O)=O)C(C)C)c1nnc(C)n12 [Example 405, 2-(S)-methanesulfonylamino-{4-[7-(2-methoxy-ethoxy)-1-methyl-[1,2,4]triazolo[4,3-a]quinoxaline-4-ylamino]-butyl}-3-methyl-butyramide]		≤ 0.05		
Cc1nnc2c(NCCCCNC(=O)C(C)(C)C)nc3cc(Cl)c(Cl)cc3n12 [Example 28, N-[4-(7,8-dichloro-1-methyl-[1,2,4]triazolo[4,3-a]quinoxaline-4-ylamino)-butyl]-2,2-dimethyl-propionamide]	0.096			
CCC(C)CC(=O)NCCCCNc1nc2c(OC)cc(OC)c(OC)c2n2c(C)nnc12 (stereo not drawn) [Example 489, 3-methyl-pentanoic acid-[4-(6,8,9-trimethoxy-1-methyl-[1,2,4]triazolo[4,3-a]quinoxaline-4-ylamino)-butyl]-amide]	0.03	≤ 0.05		
Cc1nnc2c(NCCCCN)nc3cc(-c4nc5ccccc5n4C)ccc3n12 [Example 221, N^1-[1-methyl-7-(1-methyl-1H-benzoimidazole-2-yl)-[1,2,4]triazolo[4,3-a]quinoxaline-4-yl]-butane-1,4-diamine ditrifluoroacetic acid]	0.062			
Cc1cccc(C)c1C(=O)NCCCCNc1nc2ccccc2n2c(C)nnc12 [Example 13, 2,6-dimethyl-N-[4-(1-methyl-[1,2,4]triazolo[4,3-a]quinoxaline-4-ylamino)-butyl]-benzamide]	0.057			
COc1ccc2c(c1)nc(NCCCCNC(=O)[C@@H](N)Cc1ccc(O)cc1)c1nnc(C)n12 [Example 326, 2-(S)-amino-3-(4-hydroxy-phenyl)-N-[4-(7-methoxy-1-methyl-[1,2,4]triazolo[4,3-a]quinoxaline-4-ylamino)-butyl]-propionamide]	0.064			
COCCOc1ccc2c(c1)nc(NCCCCNC(=O)C(C)(C)O)c1nnc(C)n12 [Example 385, 2-hydroxy-N-{4-(7-(2-methoxy-ethoxy)-1-methyl-[1,2,4]triazolo[4,3-a]quinoxaline-4-ylamino)-butyl}-2-methyl-propionamide]	0.049	≤ 0.05		
Cc1nnc2c(NCCCCNC(=O)OC(C)(C)C)nc3ccc(C(N)=O)cc3n12 [Example 533, [4-(8-carbamoyl-1-methyl-[1,2,4]triazolo[4,3-a]quinoxaline-4-ylamino)-butyl]-carbamic acid-tert-butylester]	0.067			

Second part, led by results:

IC50 [2, 3] [µM]	IC50 [2, 4] [µM]	SMILES	IC50 ([1]; read-out: IC50, cytotoxicity against acute myelogenous leukemia cells) [µM]	IC50 ([1]; read-out: MV-4-11 Cytotoxicity IC50) [µM]
0.03	≤ 0.05	Cc1noc(C)c1-c1ccc2nc(NCCCCNC(=O)OC(C)(C)C)c3nnc(C)n3c2c1 [Example 578, {4-[8-(3,5-dimethyl-isoxazol-4-yl)-1-methyl-[1,2,4]triazolo[4,3-a]quinoxaline-4-ylamino]-butyl}-carbamic acid-tert-butylester]		
0.025	≤ 0.05	COCCOc1ccc2c(c1)nc(NCCCCNC(=O)NC(C)(C)C)c1nnc(C)n12 [Example 424, 1-tert-butyl-3-{4-[7-(2-methoxy-ethoxy)-1-methyl-[1,2,4]triazolo[4,3-a]quinoxaline-4-ylamino]-butyl}-urea]		
0.031	≤ 0.05	COc1ccc2nc(NCCCCNC(=O)[C@H](O)C(C)C)c3nnc(C)n3c2c1 [Example 125, 2-(R)-hydroxy-N-[4-(8-methoxy-1-methyl-[1,2,4]triazolo[4,3-a]quinoxaline-4-ylamino)-butyl]-3-methyl-butyramide]		
0.027	≤ 0.05	COc1ccc2c(c1)nc(NCCCCNC(=O)C(C)(C)O)c1nnc(C)n12 [Example 297, 2-hydroxy-N-[4-(7-methoxy-1-methyl-[1,2,4]triazolo[4,3-a]quinoxaline-4-ylamino)-butyl]-2-methyl-propionamide]		
0.007	≤ 0.01	COc1ccc2c(c1)nc(NCCCCNC(=O)[C@@H](NC(=O)[C@H](C)O)C(C)C)c1nnc(C)n12 [Example 324, 2-(S)-(2-(S)-hydroxy-propionylamino)-N-[4-(7-methoxy-1-methyl-[1,2,4]triazolo[4,3-a]quinoxaline-4-ylamino)-butyl]-3-methyl-butyramide]		
0.041	≤ 0.05	COCCOc1ccc2c(c1)nc(NCCCCNC(=O)C(C)(C)OC(C)=O)c1nnc(C)n12 [Example 384, acetic acid-1-{4-[7-(2-methoxy-ethoxy)-1-methyl-[1,2,4]triazolo[4,3-a]quinoxaline-4-ylamino]-butylcarbamoyl}-1-methyl-ethylester]		
0.028	≤ 0.05	COCCOc1ccc2c(c1)nc(NCCCCNC(=O)N1CCOCC1)c1nnc(C)n12 [Example 425, morpholine-4-carboxylic acid-{4-[7-(2-methoxy-ethoxy)-1-methyl-[1,2,4]triazolo[4,3-a]quinoxaline-4-ylamino]-butyl}-amide]		
0.036	≤ 0.05	COc1c(C)ccc2c1nc(NCCCCNC(=O)OC(C)(C)C)c1nnc(C)n12 [Example 130, {4-[6-methoxy-1,7-dimethyl-[1,2,4]triazolo[4,3-a]quinoxaline-4-ylamino]-butyl}-carbamic acid-tert-butylester]		
0.033	≤ 0.05	COc1ccc2c(c1)nc(NCCCCNC(=O)[C@@H](C)O)c1nnc(C)n12 [Example 295, 2-(R)-hydroxy-N-[4-(7-methoxy-1-methyl-[1,2,4]triazolo[4,3-a]quinoxaline-4-ylamino)-butyl]-propaneamide]		
0.031	≤ 0.05	COc1cc(C)c2c(c1)nc(NCCCCNC(=O)OC(C)(C)C)c1nnc(C)n12 [Example 455, [4-(7-methoxy-1,9-dimethyl-[1,2,4]triazolo[4,3-a]quinoxaline-4-ylamino)-butyl]-carbamic acid-tert-butylester]		
0.044	≤ 0.05	Cc1nnc2c(NCCCCOC(=O)C(C)C)nc3ccccc3n12 [Example 632]		
0.016	≤ 0.05	COc1ccc2c(c1)nc(NCCCCC(=O)NC(C)(C)C)c1nnc(C)n12 [Example 653, 5-(7-methoxy-1-methyl-[1,2,4]triazolo[4,3-a]quinoxaline-4-ylamino)-pentanoic acid-tert-butylamide]		
0.042	≤ 0.05	Cc1nnc2c(NCCCCNC(=O)OC(C)(C)C)nc3ccc(F)cc3n12 [Example 47, [4-(8-fluoro-1-methyl-[1,2,4]triazolo[4,3-a]quinoxaline-4-ylamino)-butyl]-carbamic acid-tert-butylester]		
0.005	≤ 0.01	Cc1noc(C)c1-c1ccc2c(c1)nc(NCCCCNC(=O)OC(C)(C)C)c1nnc(C)n12 [Example 583, {4-[7-(3,5-dimethyl-isoxazol-4-yl)-1-methyl-[1,2,4]triazolo[4,3-a]quinoxaline-4-ylamino]-butyl}-carbamic acid-tert-butylester]		
0.004	≤ 0.01	COCCOc1ccc2c(c1)nc(NCCCCNC(=O)SC(C)C)c1nnc(C)n12 [Example 428, {4-[7-(2-methoxy-ethoxy)-1-methyl-[1,2,4]triazolo[4,3-a]quinoxaline-4-ylamino]-butyl}-thiocarbamic acid-S-isopropylester]		
